# Experimental data: patent US7081256B2, “Quinolinone derivative pharmaceutical compositon and production method therefor” (Dainippon Ink and Chemicals, Inc., priority 2001, dated 2006)
# Where two headings read alike, the source gives them in different places.
# Tests used:
# [1] = Measurement of particle size distribution (AEROSIZER); assay type: physicochemical; settings: for Average particle diameter: mass median aerodynamic diameter
# Experimental: As used herein, the expression “quinolinone derivative is in the form of particles, which have an average particle diameter of 0.5 to 10 μm and such a particle size distribution that particles having a particle diameter of 15 μm or less account for 90% or more of the totality of the particles” means that a mass median aerodynamic diameter in the volume-basis distribution obtained, when the particle size distribution of the quinolinone derivative is measured by an aerodynamic flight time type dry particle size distribution measuring apparatus (AEROSIZER: Central Scientific Commerce, Inc.), is within a range from 0.5 to 10 μm and the particles have such a particle size distribution that particles having a particle diameter of 15 μm or less account for 90% or more of the totality of the particles.
# (§1) • Measurement of particle size distribution: The particle size distribution was automatically measured by AEROSIZER (manufactured by Central Scientific Commerce, Inc.). • DSC method: Using DSC7 (manufactured by Perkin Elmer Co.), the measurement was conducted at a temperature within a range from 25 to 250° C. under the conditions of a heating rate of 20° C./min. by a normal method.
# [2] = Differential scanning calorimetry (DSC); assay type: physicochemical; settings: for DSC Fusion enthalpy ΔH: 25 to 250° C., heating rate 20° C./min.
# From the text: Furthermore, the quinolinone derivative used in the present invention has a fusion enthalpy (ΔH) of 30 J/g or more, and preferably 35 J/g or more. […] As used herein, the term “fusion enthalpy” refers to a value obtained from an endothermic peak due to fusion of the quinolinone derivative crystal in differential scanning calorimetry (DSC) and is an index of the crystallinity.
# as §1
# [3] = Dissolution test, paddle method, 50 rpm, 0.5% sodium lauryl sulfate; assay type: physicochemical; settings: paddle 50 rpm, compared with the non-ground product
# Experimental: Furthermore, dissolution properties of these quinolinone derivatives were evaluated by the dissolution test (paddle method). The results are shown in FIG. 2. • Powder X-ray diffraction method: Using RINT-ULTIMA (manufactured by Rigaku Denki Kogyo Co., Ltd.), the measurement was conducted at a diffraction angle within a range from 5 to 40° under the conditions of Cu—Kα rays, 40 KV and 30 mA by the normal method. • Dissolution test method: According to the second method (paddle method) of the dissolution test method of The Pharmacopoeia of Japan, Fourteenth Edition, the measurement was conducted under the conditions of a paddle rotational speed of 50 rpm using 0.5% sodium lauryl sulfate as a test liquid.
# (§2) According to the disintegration test of The Pharmacopoeia of Japan, Fourteenth Edition, the disintegration time of the resulting tablets was measured by using water as a test liquid (n=3). […]
# as §2, §2
# [4] = dog, in vivo, po, 10 mg/kg
# Experimental: After oral administration, 30 ml of distilled water was orally administered. After oral administration, 2.5 ml of blood was collected from the antebrachial vein over time and was then centrifuged to obtain blood plasma. After adding the one-fold amount of acetonitrile to blood serum to remove protein, the amounts of quinolinone derivative and its metabolite were determined by using HPLC.
# From the quantitatively determined values of the quinolinone derivative and its metabolite immediately after collecting blood, an average value of a maximum concentration in blood (Cmax) and an average value of an area under a curve of concentration in blood vs time (AUC) were determined.
structure (smiles),measurement,setting,value
"CCCCCCCCOc1c(O)c2ccc(NC(=O)/C=C/c3cc(OC)c(O)c(OC)c3)cc2n(C)c1=O [quinolinone derivative (B), 7-(3,5-dimethoxy-4-hydroxycinnamoylamino)-3-octyloxy-4-hydroxy-1-methyl-2(1H)-quinoline]",Proportion (%) of particles having a particle diameter of 15 μm or less based on the totality of the particles,[1],≥ 0.6%
same,Proportion (%) of particles having a particle diameter of 15 μm or less based on the totality of the particles,[1]; listed as (B),0.6%
same,Average particle diameter,[1],33.3 μm
same,Average particle diameter,[1]; listed as (B),33.3 μm
same,DSC Fusion enthalpy ΔH,[2],≥ 52.7 J/g
same,DSC Fusion enthalpy ΔH,[2]; listed as (B),52.7 J/g
"CCCCCCCCOc1c(O)c2ccc(NC(=O)/C=C/c3cc(OC)c(O)c(OC)c3)cc2n(C)c1=O [Comparative Example 2, 7-(3,5-dimethoxy-4-hydroxycinnamoylamino)-3-octyloxy-4-hydroxy-1-methyl-2(1H)-quinoline]",Solid state by DSC (endothermic peak of β-type crystal),[2]; after grinding in agate mortar for 30 minutes,amorphous state
"CCCCCCCCOc1c(O)c2ccc(NC(=O)/C=C/c3cc(OC)c(O)c(OC)c3)cc2n(C)c1=O [quinolinone derivative (A-1), 7-(3,5-dimethoxy-4-hydroxycinnamoylamino)-3-octyloxy-4-hydroxy-1-methyl-2(1H)-quinoline]",Proportion (%) of particles having a particle diameter of 15 μm or less based on the totality of the particles,[1]; listed as (A-1),100%
same,Average particle diameter,[1]; listed as (A-1),4.5 μm
same,DSC Fusion enthalpy ΔH,[2]; listed as (A-1),47.7 J/g
same,dissolution rate (FIG. 2),[3],drastically increased
"CCCCCCCCOc1c(O)c2ccc(NC(=O)/C=C/c3cc(OC)c(O)c(OC)c3)cc2n(C)c1=O [quinolinone derivative (B-1), 7-(3,5-dimethoxy-4-hydroxycinnamoylamino)-3-octyloxy-4-hydroxy-1-methyl-2(1H)-quinoline]",Proportion (%) of particles having a particle diameter of 15 μm or less based on the totality of the particles,[1]; listed as (B-1),95%
same,Average particle diameter,[1]; listed as (B-1),6.6 μm
same,DSC Fusion enthalpy ΔH,[2]; listed as (B-1),51.6 J/g
same,AUC increase as compared with the non-ground product,[4],8.7 times
same,Cmax increase as compared with the non-ground product,[4],9 times
"CCCCCCCCOc1c(O)c2ccc(NC(=O)/C=C/c3cc(OC)c(O)c(OC)c3)cc2n(C)c1=O [quinolinone derivative (A), 7-(3,5-dimethoxy-4-hydroxycinnamoylamino)-3-octyloxy-4-hydroxy-1-methyl-2(1H)-quinoline]",Proportion (%) of particles having a particle diameter of 15 μm or less based on the totality of the particles,[1],≥ 9.9%
same,Proportion (%) of particles having a particle diameter of 15 μm or less based on the totality of the particles,[1]; listed as (A),9.9%
same,Average particle diameter,[1],25.3 μm
same,Average particle diameter,[1]; listed as (A),25.3 μm
same,DSC Fusion enthalpy ΔH,[2],≥ 49.9 J/g
same,DSC Fusion enthalpy ΔH,[2]; listed as (A),49.9 J/g
